Experimental data published in patent US11040038B2, “Methods for treating diseases associated with abnormal ACVR1 expression and ACVR1 inhibitors for use in the same” (Sumitomo Dainippon Pharma Oncology, Inc., priority 2018, dated 2021).
Read-outs that look alike come from different tables or passages of the source.

Columns and labels:
[1] = Pharmacokinetics and relative bioavailability after a single oral dose (two liquid formulations, powder in capsule); type: in vivo, male Beagle dogs; conditions: male, Beagle, dog, plasma, po, plasma; for AUC(0-t): read-out: AUC0-TLast; for CL/F: read-out: CL/F (converted); for Vd/F: read-out: Vz/F
Text: The purpose of the study is to dose two suspension formulations of Compound 2 at two dose levels by gavage to Beagle dogs and to collect blood samples for the determination of plasma concentrations, derivation of pharmacokinetic parameters and to determine the relative bioavailability of the two suspension formulations. The pharmacokinetics of Compound 2 would be evaluated following oral administration in capsules and the relative bioavailability of this dosage form to the oral liquid formulations was determined.
This study involves the dosing of the test item by the oral route over three periods separated by a 7 days washout period as outlined in Table 43, Table 44, and Table 45. The third period of the study outlined in Table 45 is considered to be optional and will only be performed at the Sponsor's request. Prior to the day of dosing, food will be removed from the dogs at 4:00 pm and reintroduced 2 hrs after dosing.
For oral administration of the formulations, the test item was administered via a stomach tube followed by the administration of 10 mL of tap water. For oral administration of capsules, the capsule was placed on the back of the tongue to encourage swallowing followed by administration of 10 mL of tap water. The oral cavity was then be inspected to make sure the capsule was swallowed. The actual volume of dosing formulation administered will be calculated based on the animal's most recently scheduled body weight.
The pharmacokinetic parameters for Compound 2 in solution as Formulation #1 (Table 43) and Formulation #2 (Table 44) along with data for the dosing of Compound 2 powder in capsule (Table 45) are presented in Table 46.

[2] = Preliminary brain PK study; type: in vivo; conditions: mouse, mice, brain tissue
Procedure: In order to be an effective treatment for DIPG, Compound 2 needs to distribute to the brain and more importantly, achieve fairly deep penetration to the pons region of the brain. To assess the general distribution of Compound 2 to the brain, a preliminary brain PK study was conducted. Brain tissue concentrations show very good distribution to the brain (FIG. 4A).

[3] = 2 mg/kg, Formulation #1 (Table 43), 2 mg/kg oral, male Beagle dogs, Mean
[4] = 2 mg/kg, Formulation #1 (Table 43), 2 mg/kg oral, male Beagle dogs, individual dog
[5] = 2 mg/kg, Formulation #2 (Table 44), 2 mg/kg oral, male Beagle dogs, Mean
[6] = 2 mg/kg, Formulation #2 (Table 44), 2 mg/kg oral, male Beagle dogs, individual dog
[7] = 2 mg/kg, Powder in Capsule (Table 45), 2 mg/kg oral, male Beagle dogs, Mean
[8] = 2 mg/kg, Powder in Capsule (Table 45), 2 mg/kg oral, male Beagle dogs, individual dog
[9] = 5 mg/kg, Formulation #1 (Table 43), 5 mg/kg oral, male Beagle dogs, Mean
[10] = 5 mg/kg, Formulation #1 (Table 43), 5 mg/kg oral, male Beagle dogs, individual dog
[11] = 5 mg/kg, Formulation #2 (Table 44), 5 mg/kg oral, male Beagle dogs, Mean
[12] = 5 mg/kg, Formulation #2 (Table 44), 5 mg/kg oral, male Beagle dogs, individual dog
[13] = 5 mg/kg, Powder in Capsule (Table 45), 5 mg/kg oral, male Beagle dogs, Mean
[14] = 5 mg/kg, Powder in Capsule (Table 45), 5 mg/kg oral, male Beagle dogs, individual dog
[15] = Table 4, route and dose not given
[16] = Table 5, route and dose not given

AUC(0-t) [1, 3]: 70 ng·h/mL
CL/F [1, 3]: 483 mL/min/kg
Cmax ([1]; 2 mg/kg, Formulation #1 (Table 43), 2 mg/kg oral, male Beagle dogs, Mean, read-out: Cmax): 6.78 ng/mL
Vd/F [1, 3]: 237 L/kg
AUC(0-t) [1, 4]: 45 ng·h/mL
CL/F [1, 4]: 683 mL/min/kg
Cmax ([1]; 2 mg/kg, Formulation #1 (Table 43), 2 mg/kg oral, male Beagle dogs, individual dog, read-out: Cmax): 4.37 ng/mL
AUC(0-inf) [1, 5]: 105 ng·h/mL
Tmax [1, 5]: 4.7 h
half-life [1, 5]: 4.7 h
Tmax [1, 6]: 4 h
half-life [1, 6]: 3.9 h
AUC(0-t) [1, 5]: 102 ng·h/mL
CL/F [1, 5]: 400 mL/min/kg
Cmax ([1]; 2 mg/kg, Formulation #2 (Table 44), 2 mg/kg oral, male Beagle dogs, Mean, read-out: Cmax): 11.6 ng/mL
Vd/F [1, 5]: 177 L/kg
AUC(0-inf) [1, 7]: 90 ng·h/mL
Tmax [1, 7]: 3 h
half-life [1, 7]: 2.3 h
Tmax [1, 8]: 3 h
half-life [1, 8]: 2.4 h
AUC(0-t) [1, 7]: 71 ng·h/mL
CL/F [1, 7]: 417 mL/min/kg
Cmax ([1]; 2 mg/kg, Powder in Capsule (Table 45), 2 mg/kg oral, male Beagle dogs, Mean, read-out: Cmax): 14.9 ng/mL
Vd/F [1, 7]: 85 L/kg
Cmax ([1]; 5 mg/kg, 5 mg/kg oral, range across Formulation #1, #2 and powder in capsules, read-out: mean Cmax): 22.2 to 27.8 ng/mL
AUC(0-inf) [1, 9]: 294 ng·h/mL
Tmax [1, 9]: 3.7 h
half-life [1, 9]: 5.1 h
Tmax [1, 10]: 4 h
half-life [1, 10]: 6 h
AUC(0-t) [1, 9]: 280 ng·h/mL
CL/F [1, 9]: 333 mL/min/kg
Cmax ([1]; 5 mg/kg, Formulation #1 (Table 43), 5 mg/kg oral, male Beagle dogs, Mean, read-out: Cmax): 27.8 ng/mL
Vd/F [1, 9]: 147 L/kg
AUC(0-inf) [1, 11]: 221 ng·h/mL
Tmax [1, 11]: 3.7 h
half-life [1, 11]: 4.9 h
Tmax [1, 12]: 3 h
half-life [1, 12]: 5.4 h
AUC(0-t) [1, 11]: 211 ng·h/mL
CL/F [1, 11]: 450 mL/min/kg
Cmax ([1]; 5 mg/kg, Formulation #2 (Table 44), 5 mg/kg oral, male Beagle dogs, Mean, read-out: Cmax): 22.2 ng/mL
Vd/F [1, 11]: 188 L/kg
AUC(0-inf) [1, 13]: 160 ng·h/mL
Tmax [1, 13]: 4.3 h
half-life [1, 13]: 3.1 h
AUC(0-inf) [1, 14]: 215 ng·h/mL
Tmax [1, 14]: 3 h
half-life [1, 14]: 2.7 h
AUC(0-t) [1, 13]: 146 ng·h/mL
CL/F [1, 13]: 550 mL/min/kg
Cmax ([1]; 5 mg/kg, Powder in Capsule (Table 45), 5 mg/kg oral, male Beagle dogs, Mean, read-out: Cmax): 25.6 ng/mL
Vd/F [1, 13]: 147 L/kg
AUC(0-t) [1, 14]: 191 ng·h/mL
CL/F [1, 14]: 383 mL/min/kg
Tmax ([1]; 5 mg/kg, beagle dogs, range across formulations at both doses (2 and 5 mg/kg)): 3 to 4.7 h
AUC(0-t) [2, 15]: 750 ng·h/mL
Cmax [2, 15]: 691 ng/g
Tmax [2, 15]: 0.083 h
half-life [2, 15]: 1.23 h
AUC(0-inf) ([2]; Table 4, route and dose not printed (FIG. 4A: intravenous and oral)): 758 ng·h/mL
AUC(0-t) [2, 16]: 10300 ng·h/mL
Cmax [2, 16]: 2740 ng/g
Tmax [2, 16]: 1.8 h
half-life [2, 16]: 2.57 h
AUC(0-inf) ([2]; Table 5, route and dose not printed (FIG. 4A: intravenous and oral)): 10300 ng·h/mL
SMILES: COc1cc(Nc2nccc(Nc3cccnc3-c3ccccn3)n2)ccc1N1CCN(C)CC1 [Compound 2, N^4-(2,2′-bipyridin-3-yl)-N^2-(3-methoxy-4-(4-methylpiperazin-1-yl)phenyl)pyrimidine-2,4-diamine]
